Source: patent US7795381B2, “Methods and materials for cancer treatment” (Mayo Foundation for Medical Education and Research, priority 2001, dated 2010)
“Also recorded” adds a separate entry of the source. No end group written: not given here.

Legend:
Format in all cases: cell-based, human
[1] = system: CD4+ T cells (HTL lines); assay: T-cell proliferative response to polypeptide, dose curve ([3H]-thymidine); conditions: for polypeptide concentration required to obtain 50% of the maximal proliferation: HLA-DR7-restricted HTL lines, polypeptide presented by autologous PBMC
Procedure: Polypeptides gp10074-89, gp100175-189 and gp100576-590 were tested for their capacity to stimulate CD4^+ T cells obtained from four healthy, MHC-typed individuals in primary in vitro cultures using polypeptide-pulsed autologous dendritic cells (DC). The method used to generate tumor antigen-reactive HTL lines and clones using polypeptide-stimulated peripheral blood mononuclear cells (PBMC) was recently described in detail (Kobayashi H et al., Cancer Res 60:5228 (2000)). Briefly, DC were generated in tissue culture from adherent monocytes that were cultured for 7 days in the presence of GM-CSF and IL-4. A total of (1×10^4) polypeptide-pulsed DC (10 μg/ml for 2 hr) were irradiated (4,200 rad) and co-cultured with 3×10^4 autologous purified CD4^+ T cells (using magnetic microbeads from Miltenyi Biotech) in each well of a 96-round bottom well culture plate. Seven days later, the cultures were restimulated with polypeptide-pulsed irradiated autologous PBMC and two days later, human rIL-2 was added at a final concentration of 10 IU/ml. After 7 days, the microcultures were tested for their proliferative responses to polypeptide as described below. Those micro-wells showing a proliferative response to polypeptide (at least 2.5 fold over background) were expanded in 24 or 48-well plates by weekly restimulation with polypeptides and irradiated autologous PBMC. In some instances T-cell lines were cloned by limiting dilution and used for further studies. […]
T cells (3×10^4/well) were mixed with irradiated APC in the presence of various concentrations of antigen (polypeptides, tumors or tumor lysates), in 96-well culture plates. […] The radioactivity incorporated into DNA, which correlates with cell proliferation, was measured in a liquid scintillation counter after harvesting the cell cultures onto glass fiber filters. […] The stimulation index (SI) was calculated by dividing the mean radioactivity (cpm) obtained in the presence of antigen by the mean radioactivity (cpm) obtained in the absence of antigen but in the presence of APC.

[2] = system: CD4+ T cells (HTL lines); assay: MHC restriction analysis of HTL proliferative response (anti-HLA-DR/-DQ blocking, HLA-transfected L-cells, LCL); conditions: for ability to trigger HTL restricted by other alleles such as HLA-DR1 or -DR4: 2 experiments with cells from 2 donors; for MHC restriction of the induced CD4+ T-cell (HTL) proliferative response: anti-DR/anti-DQ antibody blocking, HLA-transfected L-cells, allogeneic LCL
Procedure: Polypeptides gp10074-89, gp100175-189 and gp100576-590 were tested for their capacity to stimulate CD4^+ T cells obtained from four healthy, MHC-typed individuals in primary in vitro cultures using polypeptide-pulsed autologous dendritic cells (DC). The method used to generate tumor antigen-reactive HTL lines and clones using polypeptide-stimulated peripheral blood mononuclear cells (PBMC) was recently described in detail (Kobayashi H et al., Cancer Res 60:5228 (2000)). Briefly, DC were generated in tissue culture from adherent monocytes that were cultured for 7 days in the presence of GM-CSF and IL-4. A total of (1×10^4) polypeptide-pulsed DC (10 μg/ml for 2 hr) were irradiated (4,200 rad) and co-cultured with 3×10^4 autologous purified CD4^+ T cells (using magnetic microbeads from Miltenyi Biotech) in each well of a 96-round bottom well culture plate. Seven days later, the cultures were restimulated with polypeptide-pulsed irradiated autologous PBMC and two days later, human rIL-2 was added at a final concentration of 10 IU/ml. After 7 days, the microcultures were tested for their proliferative responses to polypeptide as described below. Those micro-wells showing a proliferative response to polypeptide (at least 2.5 fold over background) were expanded in 24 or 48-well plates by weekly restimulation with polypeptides and irradiated autologous PBMC. In some instances T-cell lines were cloned by limiting dilution and used for further studies. Culture medium for all procedures consisted of RPMI-1640 supplemented with 5% human male AB serum, 0.1 mM MEM nonessential amino acids, 1 mM sodium pyruvate, 2 mM L-glutamine, and 50 μg/ml gentamicin.
T cells (3×10^4/well) were mixed with irradiated APC in the presence of various concentrations of antigen (polypeptides, tumors or tumor lysates), in 96-well culture plates. APC consisted of either PBMC (1×10^5/well), HLA-DR-expressing L-cells (3×10^4/well), EBV-LCL or melanoma tumor cells (3×10^4/well), pretreated with IFN-γ (500 U/ml for 48 h) to enhance MHC expression. Proliferation assays were incubated at 37° C. in a 5% CO2 incubator for 72 h and during the last 16 h, each well was pulsed with 0.5 μCi/well of [^3H]-thymidine (Amersham Pharmacia Biotech, Piscataway, N.J.). […] The radioactivity incorporated into DNA, which correlates with cell proliferation, was measured in a liquid scintillation counter after harvesting the cell cultures onto glass fiber filters. […] The stimulation index (SI) was calculated by dividing the mean radioactivity (cpm) obtained in the presence of antigen by the mean radioactivity (cpm) obtained in the absence of antigen but in the presence of APC.

[3] = system: melanoma tumor cells or tumor lysates presented by APC; assay: Recognition of naturally processed antigen by polypeptide-reactive HTL (proliferation, GM-CSF/IFN-γ ELISA); conditions: for HTL recognition of melanoma tumor cell lysates presented by autologous APC / HTL recognition of antigen presented directly by intact melanoma cells: HLA-DR7-restricted HTL lines; for HTL recognition of melanoma tumor cell lysates presented by autologous APC: 697 mel lysate; for HTL recognition of antigen presented directly by intact melanoma cells: HLA-DR7+ melanoma (HT-144); for recognition of naturally processed antigen by HTL reactive to the polypeptide: MHC class II positive melanomas or APC fed with tumor lysates
Source text: Recognition of naturally processed antigen by polypeptide-reactive T-cells can be an important parameter to determine whether a predicted T-cell epitope can be used to elicit an immune response against tumor cells. HTL may recognize polypeptide/MHC class II complexes directly on tumor cells that are MHC class II positive and as a consequence the T-cells will become activated and produce cytokines that provide help to CTL or cytokines that may inhibit tumor cell growth.
T cells (3×10^4/well) were mixed with irradiated APC in the presence of various concentrations of antigen (polypeptides, tumors or tumor lysates), in 96-well culture plates. APC consisted of either PBMC (1×10^5/well), HLA-DR-expressing L-cells (3×10^4/well), EBV-LCL or melanoma tumor cells (3×10^4/well), pretreated with IFN-γ (500 U/ml for 48 h) to enhance MHC expression. Proliferation assays were incubated at 37° C. in a 5% CO2 incubator for 72 h and during the last 16 h, each well was pulsed with 0.5 μCi/well of [^3H]-thymidine (Amersham Pharmacia Biotech, Piscataway, N.J.). In some cases, culture supernatants were collected before the addition of [^3H]-thymidine for the determination of lymphokine production using ELISA kits (Pharmingen, San Diego, Calif.). The radioactivity incorporated into DNA, which correlates with cell proliferation, was measured in a liquid scintillation counter after harvesting the cell cultures onto glass fiber filters. […] The stimulation index (SI) was calculated by dividing the mean radioactivity (cpm) obtained in the presence of antigen by the mean radioactivity (cpm) obtained in the absence of antigen but in the presence of APC.

[4] = system: melanoma cells; assay: Antigen-specific cytotoxicity, JAM assay; conditions: HLA-DQw6-restricted HTL; DQw6 positive melanoma cell line (1102 mel)
Procedure: The capacity of HTL lines and clones to kill tumor cells expressing the appropriate polypeptide/MHC complexes was evaluated using the JAM assay (Matzinger P, J Immunol Methods 145:185 (1991)), which measures the DNA retained by target living cells after incubation with effector T-cells. Briefly, target cells were labeled with of [^3H]-thymidine for 18 hrs in tissue culture. After washing and counting the cells, they were incubated at various effectors to target ratio in 96-well round-bottomed plates for 36 hours. The cultures were then harvested onto glass fiber filters, and the amount of radioactivity retained in DNA is measured in a scintillation counter. The percent cytotoxicity was calculated by the ratio of cpm obtained in the absence of T-cells over the cpm obtained in the presence of different amounts of T-cells X 100. All determinations were done in triplicates.

[5] = system: PBMC from normal individuals; assay: In vitro immunization of PBMC using polypeptide-pulsed DC (CTL induction)
Source text: See, Manici et al., J Exp Med 189:871 (1999); Fujita et al., Eur J Immunol 28:305 (1998); Zarour et al., Cancer Res 60:4946 (2000); Touloukian et al., J Immunol 164:3535 (2000); Zarour et al., Proc Natl Acad Sci USA 97:400 (2000); Yasukawa et al., Blood 92:3355 (1998).

Substance | polypeptide concentration required to obtain 50% of the maximal proliferation [1] | affinity of T-cell response, higher than the response to polypeptide gp10074-89 ([1]; by amount of polypeptide required to achieve 50% of maximal proliferative response) | ability to trigger HTL restricted by other alleles such as HLA-DR1 or -DR4 [2] | MHC restriction of the induced CD4+ T-cell (HTL) proliferative response [2] | HTL recognition of melanoma tumor cell lysates presented by autologous APC [3] | HTL recognition of antigen presented directly by intact melanoma cells [3] | recognition of naturally processed antigen by HTL reactive to the polypeptide [3] | cytotoxicity of polypeptide-reactive HTL [4] | induction of anti-tumor CTL responses [5]
SLAVVSTQLIMPGQE [gp100576-590] | ~0.04 µg/mL | ~15 fold | not able to trigger | restricted by the HLA-DR7 allele | could not be detected | could not be detected | did not proliferate or produce lymphokines | – | –
GPTLIGANASFSIALN [gp10074-89] | ~0.6 µg/mL | – | not able to trigger | restricted by the HLA-DR7 allele | efficient at recognizing tumor cell lysates | effective in recognizing antigen | can recognize naturally processed antigen; also recorded: capable of recognizing naturally processed antigen | – | –
GRAMLGTHTMEVTVY [gp100175-189, GRAMLGTHTMEVTVY] | – | – | – | – | – | – | – | high levels of cytotoxicity | –
gp100177-186: potent HLA-A2-restricted CTL epitope included in polypeptide gp100175-189 (AMLGTHTMEV; UniProt P40967 177-186, looked up, fragment) | – | – | – | – | – | – | – | – | very effective in inducing anti-tumor CTL responses
